Test results reported in patent US6372777B1, “Cyclic AMP-specific phosphodiesterase inhibitors” (ICOS Corporation, priority 1999, dated 2002).

Legend:
[1] = test system: serum TNFα; test: Combined mouse endotoxin-stimulated TNFα release assay (serum TNFα); format: in vivo, female Balb/c mice; conditions: LPS mouse model
Method: The purpose of this study was to determine the efficacy of PDE4 inhibitors in vivo in an LPS mouse model together with a determination with respect to central nervous system (CNS) side-effects manifested by a decrease in spontaneous mobility. The test animals were female Balb/c mice, having an average weight of about 20 g. The PDE4 inhibitors, formulated in 30% Cremophor® EL, were administered via intraperitoneal (i.p.) injections at doses of 0.1, 1.0, 10.0, and 100 mg/kg. Individual dose volumes (about […]) were adjusted based on the body weights measured. One hour later, 5 mg/kg LPS in a final volume of 200 μL was injected via the tail vein to each animal. Ninety minutes following the LPS treatment, the animals were bled and serum samples were collected before being stored at −70° C. until assayed. For efficacy determination, the serum samples were diluted two-fold and TNFα levels were determined using the CYTOSCREEN® Immunoassay Kit (Biosource International) The data were averaged between triplicate sample subjects for each of the tested compounds.

[2] = test system: spontaneous mobility; test: Locomotor activity / sedative side-effect visual scoring; format: in vivo, female Balb/c mice; design: key: Vehicle control animals were rated a single “+”; animals that were effectively immobilized and stretched out on the bottom of the cage with little detectable movement were rated as “++++.”; conditions: 10 mg/kg i.p., mice
Method: The purpose of this study was to determine the efficacy of PDE4 inhibitors in vivo in an LPS mouse model together with a determination with respect to central nervous system (CNS) side-effects manifested by a decrease in spontaneous mobility.
The test animals were female Balb/c mice, having an average weight of about 20 g. The PDE4 inhibitors, formulated in 30% Cremophor® EL, were administered via intraperitoneal (i.p.) injections at doses of 0.1, 1.0, 10.0, and 100 mg/kg. Individual dose volumes (about […]) were adjusted based on the body weights measured. One hour later, 5 mg/kg LPS in a final volume of 200 μL was injected via the tail vein to each animal. Ninety minutes following the LPS treatment, the animals were bled and serum samples were collected before being stored at −70° C. until assayed.
For side-effect profiling, a subjective visual scoring system was utilized at 5 min and 20min after administration of PDE4 inhibitors. […] In this instance, the subjects could be monitored continuously over pre-set intervals.
Movement of the X-Y plane, or rearing up on the hind legs, was quantified by counting the number of “light-beam” crosses per unit of time. […] The quantitative scoring correlated well with the subjective measurements described above.

[3] = target: T1, human recombinant PDE4 (Homo sapiens, UniProt Q07343); test: Inhibition of human recombinant PDE4 (IC50); format: biochemical
T1 construct: made in house; host or cells: Saccharomyces cerevisiae BJ2-54 (strain YI23 harboring HDUN2.32, if PDE4B)

[4] = target: T2, human recombinant PDE4B (Homo sapiens, UniProt Q07343); test: PDE inhibition, PDE4B; format: biochemical
T2 construct: made in house; host or cells: Saccharomyces cerevisiae, strain YI23 harboring HDUN2.32

[5] = target: T3, PDE1A (Homo sapiens, UniProt P54750); test: PDE inhibition, PDE1A; format: biochemical
T3 construct: contained the complete open reading frame of PDE1A3; made in house; host or cells: baculovirus-infected Sf9 cells

[6] = target: T4, PDE1B (Homo sapiens, UniProt Q01064); test: PDE inhibition, PDE1B; format: biochemical
T4 construct: made in house; host or cells: Saccharomyces cerevisiae BJ2-54

[7] = target: T5, PDE1C (Homo sapiens, UniProt Q14123); test: PDE inhibition, PDE1C; format: biochemical
T5 construct: Plasmid Hcam3aBB contained the complete open reading frame of PDE1C3; made in house; host or cells: baculovirus-infected Sf9 cells

[8] = target: T6, PDE2 (Homo sapiens, UniProt O00408); test: PDE inhibition, PDE2; format: biochemical
T6 construct: made in house; host or cells: Saccharomyces cerevisiae, strain YI34

[9] = target: T7, PDE3A (Homo sapiens, UniProt Q14432); test: PDE inhibition, PDE3A; format: biochemical
T7 construct: Plasmid pBB-PDE3A contained the complete open reading frame of PDE3A; made in house; host or cells: baculovirus-infected Sf9 cells (washed 100,000 x g pellet, not purified)

[10] = target: T8, PDE5 (Homo sapiens, UniProt O76074); test: PDE inhibition, PDE5; format: biochemical
T8 construct: made in house; host or cells: Saccharomyces cerevisiae BJ2-54

[11] = target: T9, PDE7 (Homo sapiens, UniProt Q13946); test: PDE inhibition, PDE7; format: biochemical
T9 construct: made in house; host or cells: Saccharomyces cerevisiae BJ2-54

[12] = test system: human peripheral blood lymphocytes; test: Lipopolysaccharide-stimulated TNFα release from human peripheral blood lymphocytes; format: cell-based; conditions: for EC50: Homo sapiens, Lymphocyte, LPS-stimulated TNFα release, read-out: PBL/TNFα EC50
Method: The compounds of structural formulae (I) and (II) also were tested for an ability to reduce TNFα secretion in human peripheral blood lymphocytes. The ability to reduce TNFα secretion is related to the EC50 values (i.e., the effective concentration of the compound capable of inhibiting 50% of the total TNFα). To assess the ability of a compound to reduce TNFα secretion in human peripheral blood lymphocytes (PBL), the following tests were performed. […] Heparinized blood (approximately 30 mL) drawn from human volunteers was mixed 1:1 with Dulbecco's modified phosphate-buffered saline. This mixture was mixed 1:1 with HISTOPAQUE and centrifuged at 1,500 rpm at room temperature without braking in the swinging bucket of a Beckman model TJ6 centrifuge. Erythrocytes were centrifuged to the bottom of the tubes, and serum remained at the surface of the tubes. A layer containing lymphocytes sedimented between the serum and HISTOPAQUE® layers, and was removed by aspiration to a fresh tube. The cells were quantified and adjusted to 3×10^6 cells/mL and a 100 μL aliquot is placed into the wells of a 96 well plate. Test compounds and RPMI media (Gibco/BRL Life Sciences) are added to each of the wells 15 minutes prior to addition of bacterial LPS ([…]). The mixture was allowed to incubate for 20 hours at 37° C. in a humidified chamber. The cells then were separated by centrifuging at 800 rpm for 5 minutes at room temperature. An aliquot of 80 µL of supernatant was transferred to a new plate or determination of TNFα concentration. TNFα protein in the cell supernatant fluids was measured using a commercially available enzyme-linked immunosorbent assay (ELISA) (CYTOSCREEN® Immunoassay Kit from Biosource International). The cell-based assay provided the following results for various compounds of the present invention. The EC50 values (i.e., effective concentration of the compound capable of inhibiting 50% of the total TNFα ) illustrate the ability of the present compounds to inhibit LPS-stimulated TNFα release from human PBL.

[13] = test system: recombinant human PDE4; conditions: reported value; read-out: IC50 with respect to recombinant human PDE4; cited from earlier work

T1 sequence (Q07343 1-564 isoform Q07343-2): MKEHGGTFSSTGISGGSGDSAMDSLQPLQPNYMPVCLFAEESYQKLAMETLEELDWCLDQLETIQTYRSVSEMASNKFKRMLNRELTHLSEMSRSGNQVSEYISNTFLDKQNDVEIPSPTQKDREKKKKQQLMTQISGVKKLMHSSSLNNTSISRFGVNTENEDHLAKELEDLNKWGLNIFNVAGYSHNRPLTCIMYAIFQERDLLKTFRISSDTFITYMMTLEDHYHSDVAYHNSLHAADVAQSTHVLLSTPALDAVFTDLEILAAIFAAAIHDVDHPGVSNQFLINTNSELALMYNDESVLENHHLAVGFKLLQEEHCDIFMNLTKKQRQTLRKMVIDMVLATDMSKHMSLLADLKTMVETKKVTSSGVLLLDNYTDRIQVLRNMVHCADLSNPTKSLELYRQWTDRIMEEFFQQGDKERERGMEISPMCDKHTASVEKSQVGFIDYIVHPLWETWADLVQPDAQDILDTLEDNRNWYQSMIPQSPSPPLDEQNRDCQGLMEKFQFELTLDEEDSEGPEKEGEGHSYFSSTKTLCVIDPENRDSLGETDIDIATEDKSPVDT
T9 sequence (Q13946 whole entry): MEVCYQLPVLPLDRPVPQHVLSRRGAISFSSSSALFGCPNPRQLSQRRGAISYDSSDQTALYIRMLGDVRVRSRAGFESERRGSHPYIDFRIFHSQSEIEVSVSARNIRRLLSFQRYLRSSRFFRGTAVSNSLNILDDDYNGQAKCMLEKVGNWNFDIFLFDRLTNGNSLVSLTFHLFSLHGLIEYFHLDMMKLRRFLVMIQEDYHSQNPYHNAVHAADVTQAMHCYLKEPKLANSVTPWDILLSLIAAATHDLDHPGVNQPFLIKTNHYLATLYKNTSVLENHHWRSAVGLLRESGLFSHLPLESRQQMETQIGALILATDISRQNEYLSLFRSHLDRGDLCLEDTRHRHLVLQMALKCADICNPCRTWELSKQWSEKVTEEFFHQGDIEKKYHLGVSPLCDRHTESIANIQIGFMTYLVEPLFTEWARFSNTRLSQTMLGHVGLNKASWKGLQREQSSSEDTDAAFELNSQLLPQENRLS
T2 sequence (Q07343 whole entry): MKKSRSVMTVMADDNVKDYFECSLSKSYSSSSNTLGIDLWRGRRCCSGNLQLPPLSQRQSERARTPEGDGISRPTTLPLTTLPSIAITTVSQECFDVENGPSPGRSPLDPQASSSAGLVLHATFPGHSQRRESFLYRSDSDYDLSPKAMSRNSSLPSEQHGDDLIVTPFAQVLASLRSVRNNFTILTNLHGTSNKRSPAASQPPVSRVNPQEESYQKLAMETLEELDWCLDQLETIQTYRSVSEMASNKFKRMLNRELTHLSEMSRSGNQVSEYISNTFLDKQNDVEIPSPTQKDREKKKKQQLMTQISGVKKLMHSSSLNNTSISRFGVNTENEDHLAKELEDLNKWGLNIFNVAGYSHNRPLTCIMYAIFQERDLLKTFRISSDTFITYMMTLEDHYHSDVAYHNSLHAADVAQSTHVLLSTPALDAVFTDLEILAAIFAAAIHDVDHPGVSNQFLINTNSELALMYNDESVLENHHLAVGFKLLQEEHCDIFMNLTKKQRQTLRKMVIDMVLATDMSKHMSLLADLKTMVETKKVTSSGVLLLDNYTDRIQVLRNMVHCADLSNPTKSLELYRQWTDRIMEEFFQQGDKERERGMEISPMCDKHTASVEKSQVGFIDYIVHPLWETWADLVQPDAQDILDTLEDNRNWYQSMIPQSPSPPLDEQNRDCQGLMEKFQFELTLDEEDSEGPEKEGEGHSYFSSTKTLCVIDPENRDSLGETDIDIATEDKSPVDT
T6 sequence (O00408 whole entry): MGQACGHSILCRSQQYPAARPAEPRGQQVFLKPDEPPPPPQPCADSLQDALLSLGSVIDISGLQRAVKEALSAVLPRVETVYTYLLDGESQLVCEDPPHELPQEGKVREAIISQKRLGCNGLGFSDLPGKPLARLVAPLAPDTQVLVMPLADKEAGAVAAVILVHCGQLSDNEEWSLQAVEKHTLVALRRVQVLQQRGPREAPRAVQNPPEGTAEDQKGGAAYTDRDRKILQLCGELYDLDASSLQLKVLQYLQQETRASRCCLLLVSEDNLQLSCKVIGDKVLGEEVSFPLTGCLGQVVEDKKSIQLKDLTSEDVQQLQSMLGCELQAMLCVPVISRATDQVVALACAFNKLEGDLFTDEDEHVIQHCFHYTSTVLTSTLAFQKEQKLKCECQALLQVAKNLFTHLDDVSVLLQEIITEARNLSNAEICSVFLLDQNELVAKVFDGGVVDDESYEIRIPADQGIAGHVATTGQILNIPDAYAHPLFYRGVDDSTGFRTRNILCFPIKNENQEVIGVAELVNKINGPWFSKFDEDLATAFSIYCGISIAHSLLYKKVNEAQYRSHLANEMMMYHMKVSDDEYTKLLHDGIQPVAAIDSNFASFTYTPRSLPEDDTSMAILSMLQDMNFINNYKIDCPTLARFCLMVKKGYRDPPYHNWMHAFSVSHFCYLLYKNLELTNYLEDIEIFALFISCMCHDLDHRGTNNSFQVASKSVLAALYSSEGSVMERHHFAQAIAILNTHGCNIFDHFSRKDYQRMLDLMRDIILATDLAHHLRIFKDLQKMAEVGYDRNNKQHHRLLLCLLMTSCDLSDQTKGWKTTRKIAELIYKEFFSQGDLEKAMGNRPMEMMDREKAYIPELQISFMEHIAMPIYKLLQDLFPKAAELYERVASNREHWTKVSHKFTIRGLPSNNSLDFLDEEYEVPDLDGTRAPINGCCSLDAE
T7 sequence (Q14432 whole entry): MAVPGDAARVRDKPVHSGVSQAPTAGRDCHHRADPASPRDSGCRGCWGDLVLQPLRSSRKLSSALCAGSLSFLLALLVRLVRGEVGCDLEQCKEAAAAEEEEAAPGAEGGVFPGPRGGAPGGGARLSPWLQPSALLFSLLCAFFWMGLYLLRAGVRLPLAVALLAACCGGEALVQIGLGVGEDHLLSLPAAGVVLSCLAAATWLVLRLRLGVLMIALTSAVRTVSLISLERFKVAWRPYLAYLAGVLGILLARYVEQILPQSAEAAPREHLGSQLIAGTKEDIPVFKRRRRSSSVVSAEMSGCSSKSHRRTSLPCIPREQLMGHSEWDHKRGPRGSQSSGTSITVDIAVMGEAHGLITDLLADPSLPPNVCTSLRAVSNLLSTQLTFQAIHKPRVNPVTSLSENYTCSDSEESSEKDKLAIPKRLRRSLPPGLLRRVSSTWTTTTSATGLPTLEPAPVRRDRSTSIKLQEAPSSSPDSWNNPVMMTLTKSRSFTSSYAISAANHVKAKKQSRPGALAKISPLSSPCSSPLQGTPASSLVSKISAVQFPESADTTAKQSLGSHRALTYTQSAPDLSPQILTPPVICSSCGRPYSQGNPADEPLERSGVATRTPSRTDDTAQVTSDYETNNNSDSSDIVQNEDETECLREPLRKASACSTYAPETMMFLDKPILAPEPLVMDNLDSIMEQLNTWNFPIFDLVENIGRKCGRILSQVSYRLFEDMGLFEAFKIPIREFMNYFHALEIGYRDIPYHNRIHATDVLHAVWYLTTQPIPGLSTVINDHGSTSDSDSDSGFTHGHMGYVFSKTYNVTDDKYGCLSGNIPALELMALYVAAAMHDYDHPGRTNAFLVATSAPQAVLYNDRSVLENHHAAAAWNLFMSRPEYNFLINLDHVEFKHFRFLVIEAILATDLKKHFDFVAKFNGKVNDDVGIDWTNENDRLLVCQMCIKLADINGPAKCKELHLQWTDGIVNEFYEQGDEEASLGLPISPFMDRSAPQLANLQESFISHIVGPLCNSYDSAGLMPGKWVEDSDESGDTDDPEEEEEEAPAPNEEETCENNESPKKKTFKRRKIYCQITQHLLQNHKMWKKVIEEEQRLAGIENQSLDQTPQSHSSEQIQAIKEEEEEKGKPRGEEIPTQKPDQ

SMILES | % TNFα Inhibition ([1]; 1 mg/kg i.p.) [%] | % TNFα Inhibition ([1]; 10 mg/kg i.p.) [%] | % TNFα Inhibition ([1]; 100 mg/kg i.p.) [%] | IC50 [3] [nM] | EC50 [12] [nM] | IC50 [13] [nM] | further results
COC(=O)N1C[C@@H](c2ccc(OC)c(OC3CCCC3)c2)[C@](C)(C(C)=O)C1 (relative stereo) [Comparative Example, trans-3-(3-cyclopentoxy-4-methoxyphenyl)-1-methoxycarbonyl-4-methyl-4-(methylcarbonyl)pyrrolidine, reference compound] | 43 | 100 | 100 |  |  |  | Sedative Effect [2]: +
CCOC(=O)c1cc(-c2ccccc2)n(-c2cccc([N+](=O)[O-])c2)c1C [Example 22, 2-Methyl-1-(3-nitrophenyl)-5-phenyl-1H-pyrrole-3-carboxylic acid ethyl ester] | 13 | 84 | 100 | 150 | 870 |  | IC50 [4]: 150 nM; IC50 [5]: 35500 nM; IC50 [6]: 21000 nM; IC50 [7]: 21800 nM; IC50 [8]: 4500 nM; IC50 [9]: 89000 nM; IC50 [10]: 12500 nM; IC50 [11]: 10600 nM
COC(=O)N1CC(c2ccc(OC)c(OC3CCCC3)c2)C(C)(C(C)=O)C1 (stereo not drawn) |  |  |  |  |  | ~2 | 
COc1ccc(C2CNC(=O)C2)cc1OC1CCCC1 (stereo not drawn) [Rolipram, reference compound] |  |  |  |  |  | ~200 | LPS-induced TNFα secretion from human lymphocytes ([12]; preliminary experiments): inhibit LPS-induced TNFα secretion from human lymphocytes in a dose-dependent fashion
CCOC(=O)c1cc(C)n(-c2cccc(N)c2)c1-c1ccccc1 [Example 40, 1-(3-Aminophenyl)-5-methyl-2-phenyl-1H-pyrrole-3-carboxylic acid ethyl ester] |  |  |  | 1290 | 6720 |  | 
CCOC(=O)c1cc(-c2ccccc2)n(-c2cccc(Cl)c2)c1C [Example 3, 1-(3-Chlorophenyl)-2-methyl-5-phenyl-1H-pyrrole-3-carboxylic acid ethyl ester] |  |  |  | 200 | 1500 |  | 
